# Assay results: patent US20240116922A1, “IMIDAZO[1,2-A]PYRIDINE DERIVATIVES AS IRAK4 INHIBITORS AND THEIR USE IN THE TREATMENT OF DISEASE” (BIOGEN MA INC., priority 2020, published 2024)
# Key:
# [1] = target: IRAK4 (Homo sapiens (Human), UniProt Q9NWZ3); assay: IRAK4 MSD biochemical assay (2-hour 1 mM ATP); conditions: 0.1 nM IRAK4, 1 mM ATP, 2 hour at room temperature
# [2] = Kinetic solubility assay (CLND), pH 6.8; assay type: physicochemical; conditions: potassium phosphate buffer pH 6.8, 2% DMSO, 24 hours at ambient temperature
# [3] = target: Human MDR1 transfected MDCK cells (Homo sapiens (Human), UniProt P08183); assay: MDR1-MDCK assay; conditions: 1 μM test concentration, 120 minutes incubation
# Chain of Human MDR1 transfected MDCK cells (P08183 whole entry): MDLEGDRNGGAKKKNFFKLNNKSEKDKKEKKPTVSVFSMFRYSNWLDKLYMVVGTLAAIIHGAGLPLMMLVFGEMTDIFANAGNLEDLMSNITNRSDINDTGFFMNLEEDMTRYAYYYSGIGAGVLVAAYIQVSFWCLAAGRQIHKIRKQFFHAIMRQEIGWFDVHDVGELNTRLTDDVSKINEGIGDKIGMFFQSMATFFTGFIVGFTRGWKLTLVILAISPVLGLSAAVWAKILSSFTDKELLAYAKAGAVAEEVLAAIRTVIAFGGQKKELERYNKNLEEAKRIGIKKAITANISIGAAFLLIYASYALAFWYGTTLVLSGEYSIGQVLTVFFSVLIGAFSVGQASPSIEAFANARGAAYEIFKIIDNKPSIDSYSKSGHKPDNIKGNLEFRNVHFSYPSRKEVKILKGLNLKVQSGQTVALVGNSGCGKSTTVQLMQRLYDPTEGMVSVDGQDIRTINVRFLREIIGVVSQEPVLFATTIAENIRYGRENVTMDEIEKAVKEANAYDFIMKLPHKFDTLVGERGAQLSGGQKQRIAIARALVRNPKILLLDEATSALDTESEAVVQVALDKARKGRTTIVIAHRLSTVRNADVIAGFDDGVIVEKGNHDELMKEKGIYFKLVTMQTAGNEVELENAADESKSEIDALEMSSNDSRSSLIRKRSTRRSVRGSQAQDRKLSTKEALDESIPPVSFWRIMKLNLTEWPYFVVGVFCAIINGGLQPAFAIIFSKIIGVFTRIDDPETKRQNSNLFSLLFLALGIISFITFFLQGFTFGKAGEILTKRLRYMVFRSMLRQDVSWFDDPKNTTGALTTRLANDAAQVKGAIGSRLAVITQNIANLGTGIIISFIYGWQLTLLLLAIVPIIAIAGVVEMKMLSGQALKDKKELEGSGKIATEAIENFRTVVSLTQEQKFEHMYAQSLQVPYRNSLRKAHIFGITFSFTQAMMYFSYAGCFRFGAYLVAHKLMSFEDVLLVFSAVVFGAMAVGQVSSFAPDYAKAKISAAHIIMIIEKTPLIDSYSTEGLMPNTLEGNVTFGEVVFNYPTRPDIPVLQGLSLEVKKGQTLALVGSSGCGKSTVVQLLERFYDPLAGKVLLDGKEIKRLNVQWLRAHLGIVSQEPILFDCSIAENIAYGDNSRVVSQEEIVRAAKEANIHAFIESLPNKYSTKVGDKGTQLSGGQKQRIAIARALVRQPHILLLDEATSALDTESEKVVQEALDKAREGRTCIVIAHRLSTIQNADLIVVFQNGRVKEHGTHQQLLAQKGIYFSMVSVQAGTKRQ
# Chain of IRAK4 (Q9NWZ3 whole entry): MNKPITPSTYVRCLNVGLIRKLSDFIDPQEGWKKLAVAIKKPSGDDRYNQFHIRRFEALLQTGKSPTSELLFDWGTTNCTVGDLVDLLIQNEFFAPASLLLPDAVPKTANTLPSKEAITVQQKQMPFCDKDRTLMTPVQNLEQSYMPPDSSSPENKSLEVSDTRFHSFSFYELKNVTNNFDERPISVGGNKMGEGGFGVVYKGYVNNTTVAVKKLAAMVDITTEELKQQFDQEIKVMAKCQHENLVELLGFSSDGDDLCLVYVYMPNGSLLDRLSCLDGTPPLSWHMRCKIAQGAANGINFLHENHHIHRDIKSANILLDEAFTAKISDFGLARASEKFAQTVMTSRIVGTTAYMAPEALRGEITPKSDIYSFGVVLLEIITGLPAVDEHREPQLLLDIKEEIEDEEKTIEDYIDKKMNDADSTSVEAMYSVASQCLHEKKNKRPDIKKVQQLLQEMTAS
smiles,measurement,setting,value
"O=C(Nc1cccn(C2CC2)c1=O)c1cn2cc(C34COC(C3)C4)nc2nc1OC1CCC1 [Example 36, 2-(2-oxabicyclo[2.1.1]hexan-4-yl)-7-cyclobutoxy-N-(1-cyclopropyl-2-oxo-1,2-dihydropyridin-3-yl)imidazo[1,2-a]pyrimidine-6-carboxamide]",IC50,[1],1.7 nM
same,pH 6.8 Solubility (ug/mL),[2],20.8 ug/mL
same,MDR1-MDCK Efflux Ratio,[3],6.4
